Measurements reported in US6034134A, “1-Amino-alkylcyclohexane NMDA receptor antagonists” (Merz + Co. GmbH & Co., priority 1998, dated 2000).
Counter-ions that a name gives are not always drawn. Like-named read-outs stand apart in the source and are kept apart here.

Assays:
[1] = system: NMDA receptor; assay: Patch clamp: NMDA-induced inward currents in cultured hippocampal neurones; assay type: cell-based, rat
Experimental: Hippocampi were obtained from rat embryos (E20 to E21) and were then transferred to calcium and magnesium free Hank's buffered salt solution (Gibco) on ice. Cells were mechanically dissociated in 0.05% DNAase/0.3% ovomucoid (Sigma) following an 8 minute pre-incubation with 0.66% trypsin/0.1% DNAase (Sigma). The dissociated cells were then centrifuged at 18 ×g for 10 minutes, re-suspended in minimum essential medium (Gibco) and plated at a density of 150,000 cells cm^-2 onto poly-L-lysine (Sigma)-precoated plastic petri dishes (Falcon). The cells were nourished with NaHCO3 /HEPES-buffered minimum essential medium supplemented with 5% fetal calf serum and 5% horse serum (Gibco) and incubated at 37° C. with 5% CO2 at 95% humidity. […] Thereafter the medium was exchanged partially twice weekly.
Patch clamp recordings were made from these neurones with polished glass electrodes (4-6 m.OMEGA.) in the whole cell mode at room temperature (20-22° C.) with the aid of an EPC-7 amplifier (List). Test substances were applied by switching channels of a custom-made fast superfusion system with a common outflow (10-20 ms exchange times). The contents of the intracellular solution were as follows (mM): CsCl (120), TEACl (20), EGTA (10), MgCl2 (1), CaCl2 -(0.2), glucose (10), ATP(2), cAMP (0.25); pH was adjusted to 7.3 with CsOH or HC1. The extracellular solutions had the following basic composition (mM): NaCl (140), KCl (3), CaCl2 (0.2), glucose (10), HEPES (10), sucrose (4.5), tetrodotoxin (TTX 3*10^-4). Glycine (1 μM) was present in all solutions: a concentration sufficient to cause around 80-85% activation of glycineB receptors. Only results from stable cells were accepted for inclusion in the final analysis, i.e., following recovery of responses to NMDA by at least 75% of their depression by the antagonists tested.
(§1) IC50 s in patch clamp, excitotoxicity, and binding studies were calculated according to the four parameter logistic equation using the Grafit computer program (Erithacus Software, England). Ki value for binding studies were then determined according to Cheng and Prusoff. Binding values presented are means±SEM of 3-5 determinations (each performed in duplicate). […] Pearson product moment correlation analysis (Sigma Stat, Jandel Scientific) was used to compare in vitro potencies and in vivo anticonvulsant activity.

[2] = Maximal electroshock (MES)-induced convulsions in mice; assay type: in vivo; settings: for ED50: Mus musculus, ip, 0.5 h, read-out: MES ED50; for MES ED50: 30 min
Experimental: (§2) NMR female mice (18-28 g) housed 5 per cage were used for the maximal electroshock (MES) and motor impairment tests. […] All compounds were dissolved in 0.9% saline.
(§3) The MES test was performed together with tests for myorelaxant action (traction reflex) and motor coordination (rotarod). For the traction reflex test mice were placed with their forepaws on a horizontal rod and were required to place all 4 paws on the wire within 10 seconds. To test ataxia (motor coordination) mice were placed on rotarod (5 rpm) and were required to remain on the rod for 1 minute. […] These tests were followed by MES (100 Hz, 0.5 second shock duration, 50 mA shock intensity, 0.9 ms impulse duration, Ugo Basile) applied through corneal electrodes. The presence of tonic convulsions was scored (tonic extension of hind paws with minimum angle to the body of 90°). The aim was to obtain ED50 s for all parameters scored (anticonvulsive activity and motor side effects) with use of the Litchfield Wilcoxon test for quantal dose responses. Division of the ED50 for side effects (ataxia or myorelaxation) by the ED50 for antagonism of electroshock convulsions was used as a therapeutic index (TI). […]

[3] = system: cortical neurones; assay: Excitotoxicity: glutamate toxicity in cultured cortical neurones (MTT); assay type: cell-based, rat; settings: Rattus norvegicus, Cortical neurone
Experimental: Cortical neurones were obtained from cerebral cortices of 17/18 day old fetal rats (Wistar), in general following the dissociation procedure described by. After short trypsinization and gentle trituration with fire-polished Pasteur pipettes, the cell suspension was washed by centrifugation. Cells were suspended in serum-free Neurobasal medium with B27 supplement (GIBCO) before plating onto poly-L-lysine (Sigma; 0.2 mg/ml, 20 h, 4° C.) and laminin (Sigma; 2 μg/ml, 1 h, 37° C.)-coated 96-well plates (Falcon, Primaria) at a density of 5×10^4 cells/well. Cortical neurones were maintained at 37° C. in humidified 10% CO2 /90% air. […] The medium was changed first after 4 days in vitro and then every 4 days by replacing 2/3 of the medium with astrocyte-conditioned medium. Cortical neurones between day 12 and 14 in culture were used for the experiments.
New-born rat astrocytes were isolated non-enzymatically according to the method of [24]. Briefly, both hemispheres were dissected from 2-day-old rats, passed through an 80 μm gauze, and triturated with Pasteur pipettes. Cell suspension was made in Dulbecco's modified essential medium (DMEM, Gibco) supplemented with 10% fetal calf serum (FCS, Hyclone), 2 mM glutamine (Gibco) and 50 μg/ml gentamycin and transferred into untreated, plastic culture flasks (Corning; […]). Two days after plating the flasks were shaken for 10 minutes on a rotary platform (150 U/min) to remove microglial cells. The cultures were grown to confluency within 14 days, and the culture medium was changed twice weekly. Thereafter, the glial monolayers were extensively washed with serum-free Neurobasal medium (Gibco) to remove the serum. Flasks were then shaken several times to remove oligodendrocytes and neurones. To obtain conditioned medium from primary astrocytes, the cultures were incubated with fresh Neurobasal medium supplemented with B27 andglutamine. Every 2-3 days the conditioned medium was collected and replaced by fresh medium up to 4 times.
Exposure to EAA was performed in serum-free Neurobasal medium containing 100 μM glutamate and the drug to be tested. After 20 h of incubation, the cytotoxic effect was morphologically examined under a phase contrast microscope and biochemically quantified by measuring cell viability with the MTT test (Promega). This calorimetric assay measures the reduction of a tetrazolium component (MTT) into an insoluble formazan product by the mitochondria of living cells. After incubation of the cortical neurones with the dye solution for approximately 1-4 hours, a solubilization solution was added to lyse the cells and solubilize the colored product (incubation overnight at 37° C., 10% CO2, 90% RH). These samples were then read using an Elisa plate reader (Thermomax, MWG Biotech) at a wavelength of 570 nm. The amount of color produced was directly proportional to the number of viable cells.
as §1

[4] = cited from earlier work; for side effects in humans: human, in vivo
[5] = Experimental: All animals were kept with water and food ad libitum under a 12 hour light-dark cycle (light on at 6 a.m.) and at a controlled temperature (20±0.5° C.). All e experiments were performed between 10 a.m. and 5 p.m. Tested agents were injected 30 min. i.p. before the induction of convulsions if not stated otherwise (see below). All compounds were dissolved in 0.9% saline.
[6] = Rotarod test (motor coordination, ataxia) in mice, therapeutic index versus MES; assay type: in vivo; settings: mouse, in vivo, ip; ED50 for rotarod failure divided by ED50 for MES; read-out: TI Rot.
Experimental: All compounds were dissolved in 0.9% saline.
The MES test was performed together with tests for myorelaxant action (traction reflex) and motor coordination (rotarod). For the traction reflex test mice were placed with their forepaws on a horizontal rod and were required to place all 4 paws on the wire within 10 seconds. To test ataxia (motor coordination) mice were placed on rotarod (5 rpm) and were required to remain on the rod for 1 minute. […] These tests were followed by MES (100 Hz, 0.5 second shock duration, 50 mA shock intensity, 0.9 ms impulse duration, Ugo Basile) applied through corneal electrodes. The presence of tonic convulsions was scored (tonic extension of hind paws with minimum angle to the body of 90°). The aim was to obtain ED50 s for all parameters scored (anticonvulsive activity and motor side effects) with use of the Litchfield Wilcoxon test for quantal dose responses. Division of the ED50 for side effects (ataxia or myorelaxation) by the ED50 for antagonism of electroshock convulsions was used as a therapeutic index (TI).
as §1, with “Prusoff.” for “Prusoff. Binding values presented are means±SEM of 3-5 determinations (each performed in duplicate).”

[7] = target: NMDA receptor; assay: [3H]-(+)-MK-801 binding to rat cortical membranes; settings: read-out: MK-801 Ki; Table 9; Cheng-Prusoff with Kd for MK-801 of […]
Experimental: Male Sprague-Dawley rats (200-250 g) were decapitated and their brains were removed rapidly. The cortex was dissected and homogenized in 20 volumes of ice-cold 0.32 M sucrose using a glass-Teflon homogenizer. The homogenate was centrifuged at 1000 ×g for 10 minutes. The pellet was discarded and the supernatant centrifuged at 20,000 ×g for 20 minutes. The resulting pellet was re-suspended in 20 volumes of distilled water and centrifuged for 20 minutes at 8000 ×g. Then the supernatant and the buffy coat were centrifuged three times (48,000 ×g for 20 minutes) in the presence of 50 mM Tris-HCl, pH 8.0. All centrifugation steps were carried out at 4° C. After resuspension in 5 volumes of 50 mM Tris-HCl, pH 8.0 the membrane suspension was frozen rapidly at -80° C. On the day of assay the membranes were thawed and washed four times by resuspension in 50 mM Tris-HCl, pH 8.0 and centrifugation at 48,000 ×g for 20 minutes. The final pellet was suspended in assay buffer. The amount of protein in the final membrane preparation was determined according to the method of Lowry with some modifications. The final protein concentration used for our studies was between 250-500 μg/ml.
Membranes were re-suspended and incubated in 50 mM Tris-HCl, pH 8.0. […] Incubations were terminated using a Millipore filter system. The samples were rinsed three times with 2.5 ml ice cold assay buffer over glass fiber filters obtained from Schleicher & Schuell under a constant vacuum. Filtration was performed as rapidly as possible. Following separation and rinse, the filters were placed into scintillation liquid (5 ml; Ultima Gold) and radio activity retained on the filters was determined with a conventional liquid scintillation counter (Hewlett Packard, Liquid Scintillation Analyser).
as §1

[8] = Traction reflex test (myorelaxant action) in mice, therapeutic index versus MES; assay type: in vivo; settings: ED50 for traction reflex impairment divided by ED50 for MES
Experimental: as §2, §3

[9] = read-out: Patch Clamp IC50; Table 7; NMDA 200 μM with glycine 1 μM at -70 mV
[10] = read-out: Patch Clamp IC50; Table 9; NMDA-induced currents
[11] = Table 8, mice, i.p., 95% confidence limits in parentheses
[12] = 20 h, read-out: Glut. Tox. IC50

## C[C@]12N[C@H](Cc3ccccc31)c1ccccc12 [MK-801, (+)-5-methyl-10,11-dihydro-5H-dibenzocyclohepten-5,10-imine maleate, reference compound]
[1]; [9]
  IC50: […]
[1]; [10]
  IC50: […]
[2]
  ED50: 0.16 mg/kg
[2]; [11]
  MES ED50: 0.16 (0.13-0.21) mg/kg
[3]; [12]
  IC50: 0.012 µM
[3]; read-out: Glut Tox IC50
  IC50: 0.013 µM
[4]
  side effects in humans: some psychotropic side effects were apparent at therapeutic doses
[4]; initial clinical experience
  therapeutic efficacy in epilepsy: poor
[5]; i.p., minimal lethal dose
  Min Lethality: > 108 mg/kg

## CC1(C)CC(C)(C)CC(C)(N2CCCC2)C1.Cl [MRZ 2/705, N-(1,3,3,5,5-Pentamethylcyclohexyl) pyrrolidine hydrochloride]
[6]
  selectivity ratio at 0.5 h: 5.4
[5]; i.p., minimal lethal dose
  Min Lethality: > 50 mg/kg
[7]
  Ki: 7.14 µM
[8]; mouse, in vivo, ip, read-out: TI Tract
  selectivity ratio at 0.5 h: 3.9

## NC12CC3CC(CC(C3)C1)C2 [Amantadine, reference compound]
[1]; [9]
  IC50: 71 µM
[1]; [10]
  IC50: 80.8 µM
[2]
  ED50: 184 mg/kg
[2]; [11]
  MES ED50: 184.0 (122-279) mg/kg
[3]; [12]
  IC50: 20.7 µM
[3]; read-out: Glut Tox IC50
  IC50: 36.9 µM
[4]
  side effects in humans: rarely produce side effects at the therapeutic doses

## CC1(C)CC(C)(C)CC(C)(CCN)C1 [Mrz 2/662]
[1]; Table 9; NMDA-induced currents; read-out: Patch Clamp IC50
  IC50: 1.5 µM
[2]; [11]
  ED50: 30.5 mg/kg
[3]; Table 9, 100 μM glutamate, read-out: Glut Tox IC50
  IC50: 0.53 µM
[5]; mouse, in vivo, ip
  Min Lethality: > 40 mg/kg
[7]
  Ki: 3.44 µM
[8]; 30 min
  TI Tract: 1.0
